One test concerns the target T1, human H3 receptor (Homo sapiens, UniProt Q9Y5N1).
T1 construct: Expression of this receptor was provided by utilization of the RAGE methodology; endogenous in cells; host or cells: HT1080 (human fibrosarcoma) cells, H3 expression switched on by RAGE; co-transfected with chimeric G-protein Gqαi5
The experiment in a line: Radioligand competition binding assay, human H3 receptor (HT1080 cell membranes). As to conditions: competition binding vs [3H]Nα-methylhistamine (~2 nM), membranes of HT1080 cells expressing human H3 receptor. How it is done:
(§1) Representative compounds of the present invention that were prepared by the procedures of the Examples were evaluated in binding assays against cells expressing the mouse and human H3 receptor by the following procedure.
An HT1080 cell line was produced that expresses the human H3 receptor. Expression of this receptor was provided by utilization of the RAGE methodology (Harrington et al., 2001) Nature Biotechol. 19:440-5. This cell line was transfected with the chimeric G-protein Gqαi5 (Conklin et al., 1993) Nature 363:274-6 to facilitate assessment of receptor activation through the analysis of intercellular Ca^++ levels using a fluorescence assay. The HT1080 cells expressing human histamine H3 receptor and Gqαi5 were grown in alpha-modified MEM containing 10% FBS, 3 ug/ml puromycin, 7 ug/ml blasticidin, and 3.2 uM methotrexate at 37° C. in 5% CO2/95% atmosphere.
(§2) Cells were washed with cold PBS buffer twice, scraped off the plates, and centrifuged at 1000×g for 5 minutes. Cells were resuspended in ice-cold buffer of 10 mM Tris, pH 7.4, 5 mM EDTA, protease inhibitor cocktail tablets (Roche Molecular Biochemicals) and incubated on ice for 10 minutes. The mixture was then homogenized with a dounce homogenizer or a polytron tissue grinder and centrifuged at 1000×g for 10 min at 4° C. The supernatant was centrifuged at 32,000×g for 30 min at 4° C. The membrane pellet was resuspended in a buffer of 50 mM Tris, pH 7.4 with protease inhibitor cocktail tablets and stored at −80° C. until use. Protein concentration was determined by the methods of Bradford.
(§3) Membranes were homogenized in buffer containing 50 mM Tris/HCl, 1 mM EDTA pH 7.4, and protease inhibitor cocktail tablets. Dissociation constants of radioligand (KD values) and maximum binding sites (Bmax) were determined in saturation binding experiments. Ki and IC50 were determined in competition binding assays using a fixed amount of radioligand.
(§4) Saturation binding assays were carried out in 96-well polypropylene plates in triplicate or quadruplicate. Reaction mixtures contained 100 μl of membrane suspension (˜100 μg/well), 50 μl of 4% DMSO, 50 μl of increasing amounts of [^3H]N^α-methylhistamine (final concentration of 0.01-20 nM). Nonspecific binding was defined with 10 uM clobenpropit. Competition binding assays were performed in a reaction mixture containing 100 μl of membrane suspension, 50 μl of [H]N^α-methylhistamine (final concentration of ˜2 nM), and 50 μl compounds. […] Incubations were carried out for 1.5 hours at room temperature. Reactions were terminated by rapid filtration over glass fibre GF/C filters (Perkin Elmers, MA) that had been presoaked in 0.3% PEI, using a Brandel cell harvester. The filters were washed with 500 ml of ice-cold buffer containing 50 mM Tris-HCl, pH 7.4, and were subsequently dried, impregnated with Meltilex wax scintillate (Perkin Elmers, MA) and counted with a Betaplate scintillation counter (Perkin Elmers, MA).
(§5) All data were analyzed by nonlinear least square curve fitting using Prism 4.0 software. The KD for [^3H]N^α-methylhistamine and the Bmax were derived from equation RL=RfL/(KD+L). RL is concentration of receptor-bound ligand at equilibrium, L is the free ligand concentration, Rf is the total receptor concentration. For competition binding experiments, IC50 (the concentration of compound producing 50% inhibition of specific binding) was derived from fitting to a 4-parameter logistic equation. Apparent Ki values were calculated using the Cheng-Prussof equation of Ki=IC50/(1+(L)/Kd), L is the ligand concentration. Agonist stimulation and antagonist inhibition in FLIPR were fitted to sigmoidal dose response using equation Y=Bottom+(Top-Bottom)/(1+10^((LogEC50-X))), X is the logarithm of concentration of compounds. Y is the response.
(In general: Loss of bound radioactivity is the signal in a displacement assay; it reports binding, not function.)

Another test deals with mouse H3 receptor (Mus musculus, UniProt P58406). The experiment in a line: Radioligand competition binding assay, mouse H3 receptor. As to conditions: competition binding vs [3H]Nα-methylhistamine (~2 nM), membranes of cells expressing mouse H3 receptor. How it is done: as §1, §2, §3, §4, §5
Chain of mouse H3 receptor (P58406 whole entry): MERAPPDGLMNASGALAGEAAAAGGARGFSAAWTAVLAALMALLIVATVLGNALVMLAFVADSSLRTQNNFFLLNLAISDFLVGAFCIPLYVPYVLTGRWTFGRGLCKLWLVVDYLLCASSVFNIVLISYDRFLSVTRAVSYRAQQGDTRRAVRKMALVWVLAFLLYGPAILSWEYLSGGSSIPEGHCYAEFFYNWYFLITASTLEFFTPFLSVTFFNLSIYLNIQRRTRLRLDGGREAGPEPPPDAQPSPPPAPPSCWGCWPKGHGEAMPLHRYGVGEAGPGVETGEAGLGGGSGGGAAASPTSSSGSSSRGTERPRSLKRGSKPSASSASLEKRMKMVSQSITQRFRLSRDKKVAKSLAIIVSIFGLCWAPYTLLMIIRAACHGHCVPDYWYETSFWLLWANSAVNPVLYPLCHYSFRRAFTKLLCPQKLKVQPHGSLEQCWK

T1 sequence (Q9Y5N1 whole entry): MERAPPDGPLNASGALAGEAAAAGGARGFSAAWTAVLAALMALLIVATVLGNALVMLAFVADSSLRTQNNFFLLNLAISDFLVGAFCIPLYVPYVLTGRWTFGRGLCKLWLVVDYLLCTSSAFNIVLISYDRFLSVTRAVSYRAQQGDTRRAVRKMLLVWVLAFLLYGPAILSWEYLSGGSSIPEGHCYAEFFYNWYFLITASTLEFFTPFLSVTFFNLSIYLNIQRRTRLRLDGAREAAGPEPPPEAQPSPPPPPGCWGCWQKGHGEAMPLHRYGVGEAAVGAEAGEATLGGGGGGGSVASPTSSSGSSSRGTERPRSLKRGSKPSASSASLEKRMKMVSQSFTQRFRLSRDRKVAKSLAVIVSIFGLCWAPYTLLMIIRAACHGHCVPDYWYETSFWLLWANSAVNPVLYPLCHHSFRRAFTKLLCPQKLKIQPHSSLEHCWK

Take `O[C@H]1CCN(CCc2cc3cc(-c4c5c(nc6ccnn46)CCC5)ccc3o2)C1` [1-{2-[5-(6,7-Dihydro-5H-1,4,8a-triaza-s-indacen-8-yl)-benzofuran-2-yl]-ethyl}-pyrrolidin-3-(S)-ol]: the Ki – broadly, the equilibrium dissociation constant of an inhibitor or competing ligand from its target – on human H3 receptor was under 50 nM; at mouse H3 receptor, under 500 nM.
The like results for `O[C@@H]1CCN(CCCOc2ccc(-c3c4c(nc5ccnn35)CCC4)cc2)C1` [1-{3-[4-(6,7-Dihydro-5H-1,4,8a-triaza-s-indacen-8-yl)-phenoxy]-propyl}-pyrrolidin-3-(R)-ol] were, in that order, under 50 nM and under 50 nM.
Taken in the same sequence, the figures for `O[C@H]1CCN(CCCOc2ccc(-c3c4c(nc5ccnn35)CCC4)cc2)C1` [1-{3-[4-(6,7-Dihydro-5H-1,4,8a-triaza-s-indacen-8-yl)-phenoxy]-propyl}-pyrrolidin-3-(S)-ol] were under 50 nM and under 50 nM.
Taken in the same sequence, the figures for `c1cc2nc3c(c(-c4ccc5oc(CCN6CCOCC6)cc5c4)n2n1)CCC3` [8-[2-(2-Morpholin-4-yl-ethyl)-benzofuran-5-yl]-6,7-dihydro-5H-1,4,8a-triaza-s-indacene] were under 50 nM and under 500 nM.
Regarding `c1cc2nc3c(c(-c4ccc5oc(CCN6CCCCC6)cc5c4)n2n1)CCC3` [8-[2-(2-Piperidin-1-yl-ethyl)-benzofuran-5-yl]-6,7-dihydro-5H-1,4,8a-triaza-s-indacene], the Ki was under 50 nM at human H3 receptor and under 500 nM at mouse H3 receptor.
The like results for `c1cc2nc3c(c(-c4ccc5oc(CCN6CCCC6)cc5c4)n2n1)CCC3` [8-[2-(2-Pyrrolidin-1-yl-ethyl)-benzofuran-5-yl]-6,7-dihydro-5H-1,4,8a-triaza-s-indacene] were, in that order, under 50 nM and under 500 nM.
Taken in the same sequence, the figures for `c1cc2nc3c(c(-c4ccc(OCCCN5CCOCC5)cc4)n2n1)CCC3` [8-[4-(3-Morpholin-4-yl-propoxy)-phenyl]-6,7-dihydro-5H-1,4,8a-triaza-s-indacene] were under 50 nM and under 500 nM.
The like results for `c1cc2nc3c(c(-c4ccc(OCCCN5CCCCC5)cc4)n2n1)CCC3` [8-[4-(3-Piperidin-1-yl-propoxy)-phenyl]-6,7-dihydro-5H-1,4,8a-triaza-s-indacene] were, in that order, under 50 nM and under 50 nM.
As to `c1cc2nc3c(c(-c4ccc(OCCCN5CCCC5)cc4)n2n1)CCC3` [8-[4-(3-Pyrrolidin-1-yl-propoxy)-phenyl]-6,7-dihydro-5H-1,4,8a-triaza-s-indacene], the Ki on human H3 receptor and at mouse H3 receptor was under 50 nM throughout.
Regarding `C[C@@H]1CCCN1CCc1cc2cc(-c3c4c(nc5ccnn35)CCC4)ccc2o1` [8-{2-[2-(2-(R)-Methyl-pyrrolidin-1-yl)-ethyl]-benzofuran-5-yl}-6,7-dihydro-5H-1,4,8a-triaza-s-indacene], the Ki on human H3 receptor and on mouse H3 receptor was under 50 nM each time.
In the case of `COC[C@@H]1CCCN1CCc1cc2cc(-c3c4c(nc5ccnn35)CCC4)ccc2o1` [8-{2-[2-(2-(S)-Methoxymethyl-pyrrolidin-1-yl)-ethyl]-benzofuran-5-yl}-6,7-dihydro-5H-1,4,8a-triaza-s-indacene], the Ki on human H3 receptor and at mouse H3 receptor was under 50 nM throughout.
For `CC1CCCN1CCc1cc2cc(-c3c4c(nc5ccnn35)CCC4)ccc2o1` (stereo not shown) [8-{2-[2-(2-Methyl-pyrrolidin-1-yl)-ethyl]-benzofuran-5-yl}-6,7-dihydro-5H-1,4,8a-triaza-s-indacene], the Ki at human H3 receptor and at mouse H3 receptor was under 50 nM throughout.
In the case of `COC[C@H]1CCCN1CCc1cc2cc(-c3c4c(nc5ccnn35)CCC4)ccc2o1` [8-{2-[2-(R)-(2-Methoxymethyl-pyrrolidin-1-yl)-ethyl]-benzofuran-5-yl}-6,7-dihydro-5H-1,4,8a-triaza-s-indacene], the Ki on human H3 receptor and at mouse H3 receptor was under 500 nM in each case.
For the compound `C[C@@H]1CCCN1CCCOc1ccc(-c2c3c(nc4ccnn24)CCC3)cc1Cl` [8-{3-Chloro-4-[3-(2-(R)-methyl-pyrrolidin-1-yl)-propoxy]-phenyl}-6,7-dihydro-5H-1,4,8a-triaza-s-indacene], the Ki on human H3 receptor and on mouse H3 receptor was under 50 nM in each case.
Regarding `CC1CCCN1CCCOc1ccc(-c2c3c(nc4ccnn24)COC3)cc1` (stereo not shown) [8-{4-[3-(2-Methyl-pyrrolidin-1-yl)-propoxy]-phenyl}-5H,7H-6-oxa-1,4,8a-triaza-s-indacene], the inhibition constant (Ki) on human H3 receptor and at mouse H3 receptor was under 50 nM in each case.
As to `CC1CCCN1CCCOc1ccc(-c2c3c(nc4ccnn24)CCC3)cc1` (stereo not shown) [8-{4-[3-(2-Methyl-pyrrolidin-1-yl)-propoxy]-phenyl}-6,7-dihydro-5H-1,4,8a-triaza-s-indacene], the Ki at human H3 receptor and on mouse H3 receptor was under 50 nM each time.
Turning to `c1cc2nc3c(c(-c4ccc5oc(CCN6CCOCC6)cc5c4)n2n1)CCCC3` [9-[2-(2-Morpholin-4-yl-ethyl)-benzofuran-5-yl]-5,6,7,8-tetrahydro-pyrazolo[5,1-b]quinazoline], the figures for the inhibitory constant (Ki) on human H3 receptor and at mouse H3 receptor were under 50 nM and under 500 nM, respectively.
Taken in the same sequence, the figures for `c1cc2nc3c(c(-c4ccc5oc(CCN6CCCCC6)cc5c4)n2n1)CCCC3` [9-[2-(2-Piperidin-1-yl-ethyl)-benzofuran-5-yl]-5,6,7,8-tetrahydro-pyrazolo[5,1-b]quinazoline] were under 50 nM and under 5000 nM.
Taken in the same sequence, the figures for `c1cc2nc3c(c(-c4ccc5oc(CCN6CCCC6)cc5c4)n2n1)CCCC3` [9-[2-(2-Pyrrolidin-1-yl-ethyl)-benzofuran-5-yl]-5,6,7,8-tetrahydro-pyrazolo[5,1-b]quinazoline] were under 500 nM and under 5000 nM.
`c1cc2nc3c(c(-c4ccc(OCCCN5CCOCC5)cc4)n2n1)CCCC3` [9-[4-(3-Morpholin-4-yl-propoxy)-phenyl]-5,6,7,8-tetrahydro-pyrazolo[5,1-b]quinazoline]: the Ki at human H3 receptor and at mouse H3 receptor was under 50 nM throughout.
Take `c1cc2nc3c(c(-c4ccc(OCCCN5CCCCC5)cc4)n2n1)CCCC3` [9-[4-(3-Piperidin-1-yl-propoxy)-phenyl]-5,6,7,8-tetrahydro-pyrazolo[5,1-b]quinazoline]: the inhibitory constant (Ki) at human H3 receptor and on mouse H3 receptor was under 50 nM in each case.
Take `c1ccc2c(-c3ccc(OCCCN4CCCC4)cc3)c3c(nc2c1)CCCC3` [9-[4-(3-Pyrrolidin-1-yl-propoxy)-phenyl]-1,2,3,4-tetrahydro-acridine]: the Ki at human H3 receptor is under 50 nM; on mouse H3 receptor, under 500 nM.
Taken in the same sequence, the figures for `c1cc2nc3c(c(-c4ccc(OCCCN5CCCC5)cc4)n2n1)CCCC3` [9-[4-(3-Pyrrolidin-1-yl-propoxy)-phenyl]-5,6,7,8-tetrahydro-pyrazolo[5,1-b]quinazoline] were under 50 nM and under 50 nM.
The compound `CC1CCCN1CCCOc1cccc(-c2c3c(nc4ccnn24)CCCCC3)c1` (stereo not shown) [10-{3-[3-(2-Methyl-pyrrolidin-1-yl)-propoxy]-phenyl}-6,7,8,9-tetrahydro-5H-1,4,10a-triaza-cyclohepta[f]indene] came in with an inhibition constant Ki at mouse H3 receptor of under 5000 nM.
The compound `COCCNCCCOc1ccc(-c2c3c(nc4ccnn24)CCCCC3)cc1` [(2-Methoxy-ethyl)-{3-[4-(6,7,8,9-tetrahydro-5H-1,4,10a-triaza-cyclohepta[f]inden-10-yl)-phenoxy]-propyl}-amine] registered a Ki at mouse H3 receptor of under 5000 nM.
On the same count and under the same terms, then `CCN(CC)CCCOc1cccc(-c2c3c(nc4ccnn24)CCCCC3)c1` [Diethyl-{3-[3-(6,7,8,9-tetrahydro-5H-1,4,10a-triaza-cyclohepta[f]inden-10-yl)-phenoxy]-propyl}-amine], with under 5000 nM.
